From ChEMBL document CHEMBL4706623, “GPR52 Antagonist Reduces Huntingtin Levels and Ameliorates Huntington's Disease-Related Phenotypes” (J Med Chem, 2021)

Target: G-protein coupled receptor 52 (Homo sapiens, UniProt Q9Y2T5)
Test: Antagonist activity at GPR52 (unknown origin) expressed in HEK293 cells assessed as inhibition of WO459-induced cAMP accumulation preincubated for 15 mins followed by WO459 addition and measured after 30 mins by LANCE Ultra cAMP kit based microplate reader analysis; call rule not given here
Type: functional, cell-based

Sequence of G-protein coupled receptor 52 (Q9Y2T5 whole entry): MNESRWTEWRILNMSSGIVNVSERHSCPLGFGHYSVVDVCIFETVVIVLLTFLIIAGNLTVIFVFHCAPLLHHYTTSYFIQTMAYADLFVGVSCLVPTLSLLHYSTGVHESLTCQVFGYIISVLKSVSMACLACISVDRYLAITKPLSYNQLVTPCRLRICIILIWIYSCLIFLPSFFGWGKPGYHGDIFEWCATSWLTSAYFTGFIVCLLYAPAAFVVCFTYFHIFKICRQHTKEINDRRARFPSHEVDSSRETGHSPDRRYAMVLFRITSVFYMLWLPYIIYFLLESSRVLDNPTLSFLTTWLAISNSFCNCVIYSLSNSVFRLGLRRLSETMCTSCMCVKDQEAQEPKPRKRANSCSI

SMILES	IC50 (read-out: IC50) [nM]	IC50 (hek293)
Cc1ccccc1C(=O)/C=C/CCc1ccccc1	2630	
O=C(/C=C/CCc1ccccc1)c1ccccn1	1820	
Cc1cccc(C(=O)/C=C/CCc2ccccc2)c1	2570	
O=C(/C=C/CCc1ccccc1)c1ccc(F)cc1		Not Active
O=C(/C=C/CCc1ccccc1)c1cccc2ccccc12	3290	
O=C(/C=C/CCc1ccc(Br)cc1)c1ccccc1	1810	
